The source made the active and inactive calls. No cut-off for these calls is given here.

Among the data in ChEMBL document CHEMBL3044800, “Synthesis, characterization and anticancer activity of 3-aza-analogues of DP-7” (Med Chem Res, 2012) are RLU, Activity and IC50 values, retold here.

The target of data set [1] is T1, ATP-dependent translocase ABCB1 (Homo sapiens, UniProt P08183). The experiment in a line: Inhibition of MDR1 (unknown origin)-mediated rhodamine 123 uptake expressed in mouse L5178Y cells assessed as fluorescence activity ratio at 4 uM by flow cytometry relative to untreated control. It counts as cell-based. (Flow cytometry measures light scatter and fluorescence of single cells or particles in a stream.)
T1 sequence (P08183 whole entry): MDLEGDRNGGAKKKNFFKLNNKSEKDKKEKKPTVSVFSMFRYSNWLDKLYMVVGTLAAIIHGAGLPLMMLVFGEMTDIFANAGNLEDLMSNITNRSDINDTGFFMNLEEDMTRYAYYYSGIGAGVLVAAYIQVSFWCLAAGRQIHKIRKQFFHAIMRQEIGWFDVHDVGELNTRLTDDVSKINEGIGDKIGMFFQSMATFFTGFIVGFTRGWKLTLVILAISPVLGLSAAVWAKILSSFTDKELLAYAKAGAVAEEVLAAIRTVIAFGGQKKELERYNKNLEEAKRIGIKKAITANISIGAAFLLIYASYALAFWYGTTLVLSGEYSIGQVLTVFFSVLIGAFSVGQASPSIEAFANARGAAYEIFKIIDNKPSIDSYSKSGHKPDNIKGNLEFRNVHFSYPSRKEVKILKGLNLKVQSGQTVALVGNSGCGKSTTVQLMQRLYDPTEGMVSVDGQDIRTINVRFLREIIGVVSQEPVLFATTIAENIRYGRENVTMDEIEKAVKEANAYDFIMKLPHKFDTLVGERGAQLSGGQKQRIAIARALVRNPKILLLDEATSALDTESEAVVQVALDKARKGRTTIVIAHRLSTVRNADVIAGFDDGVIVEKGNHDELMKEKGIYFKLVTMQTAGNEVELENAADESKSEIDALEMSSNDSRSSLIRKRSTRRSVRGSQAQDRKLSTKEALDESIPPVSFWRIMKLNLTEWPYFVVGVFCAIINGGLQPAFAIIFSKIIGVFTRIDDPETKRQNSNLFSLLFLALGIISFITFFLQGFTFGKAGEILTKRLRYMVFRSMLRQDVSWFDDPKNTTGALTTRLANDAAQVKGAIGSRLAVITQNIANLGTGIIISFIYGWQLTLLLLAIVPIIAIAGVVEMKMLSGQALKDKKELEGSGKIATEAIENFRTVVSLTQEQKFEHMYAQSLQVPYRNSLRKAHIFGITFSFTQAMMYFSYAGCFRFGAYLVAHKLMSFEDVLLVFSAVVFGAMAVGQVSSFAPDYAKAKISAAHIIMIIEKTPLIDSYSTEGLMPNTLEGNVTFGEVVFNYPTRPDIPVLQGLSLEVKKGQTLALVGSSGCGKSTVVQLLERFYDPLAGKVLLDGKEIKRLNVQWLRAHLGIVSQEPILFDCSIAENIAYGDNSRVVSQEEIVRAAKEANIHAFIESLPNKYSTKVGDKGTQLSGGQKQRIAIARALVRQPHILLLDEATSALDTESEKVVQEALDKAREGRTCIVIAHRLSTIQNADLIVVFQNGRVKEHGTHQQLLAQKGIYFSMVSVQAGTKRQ

The test system of data set [2] is L5178Y. The experiment in a line: Antiproliferative activity against Mus musculus (mouse) L5178Y cells transfected with mdr1 (unknown origin) after 72 hr by MTT assay. The format is functional, cell-based. Background: Tetrazolium dyes change colour on reduction, which living cells bring about.
For data set [3], the target named is T1, ATP-dependent translocase ABCB1. Put plainly: Inhibition of MDR1 (unknown origin)-mediated rhodamine 123 uptake expressed in mouse L5178Y cells assessed as fluorescence activity ratio at 21.99 uM by flow cytometry relative to untreated control. The format is cell-based.
Data set [4] deals with Voltage-gated L-type calcium channel (Rattus norvegicus, UniProt P22002+Q02485+P27732). The experiment in a line: Inhibition of L-type calcium channel in Rattus norvegicus (rat) heart artery myocytes. It counts as tissue-based.

Turning to `COc1cc(C2NC(=S)NC(C)=C2C(=O)c2ccccc2)cc(OC)c1OC` (stereo unspecified), the RLU in data set [1] is given as 0.93.

Consider `CC1=C(C(=O)c2ccccc2)C(c2cccc(Oc3ccccc3)c2)NC(=O)N1` (stereo unspecified), for which the RLU in data set [1] is listed as 1.23.

As for `COc1cc(OC)cc(C2NC(=O)NC(C)=C2C(=O)c2ccccc2)c1` (stereo unspecified), the RLU in data set [1] is reported as 1.15.

With `CC1=C(C(=O)c2ccccc2)C(c2ccccc2[N+](=O)[O-])NC(=S)N1` (stereo unspecified), the RLU in data set [1] turned out to be 0.88.

Turning to `CC1=C(C(=O)c2ccccc2)C(c2ccccc2Cl)NC(=O)N1` (stereo unspecified), in data set [1], the RLU was found to be 0.98.

Regarding `CC1=C(C(=O)c2ccccc2)C(/C=C/c2ccccc2)NC(=S)N1` (stereo unspecified), the RLU in data set [1] turned out to be 1.28.

For `CC1=C(C(=O)c2ccccc2)C(c2cccc([N+](=O)[O-])c2)NC(=O)N1` (stereo unspecified), the RLU in data set [1] is reported as 1.39.

With `CC1=C(C(=O)c2ccccc2)C(c2cccc3ccccc23)NC(=O)N1` (stereo unspecified), in data set [2], the result was Active. For the same molecule, the RLU in data set [1] came to 29.87.

In the case of `CC1=C(C(=O)c2ccccc2)C(c2cccc(Br)c2)NC(=S)N1` (stereo unspecified), the RLU in data set [1] is recorded as 1.11.

Turning to `CC1=C(C(=O)c2ccccc2)C(c2cccc(Cl)c2)NC(=S)N1` (stereo unspecified), the RLU in data set [1] is 1.21.

In the case of `CC1=C(C(=O)c2ccccc2)C(c2ccccc2)NC(=S)N1` (stereo unspecified), in data set [1], the RLU amounted to 0.97.

As to `CC1=C(C(=O)c2ccccc2)C(c2ccccc2[N+](=O)[O-])NC(=O)N1` (stereo unspecified), the RLU in data set [1] is listed as 0.94.

For the molecule `COc1ccc(C2NC(S)=NC(C)=C2C(=O)c2ccccc2)cc1OC` (stereo unspecified), the RLU in data set [1] is given as 1.28.

Turning to `CC1=C(C(=O)c2ccccc2)C(c2ccco2)NC(=O)N1` (stereo unspecified), the RLU in data set [1] was 1.26.

With `COc1ccc(CCN(C)CCCC(C#N)(c2ccc(OC)c(OC)c2)C(C)C)cc1OC` (stereo unspecified) [VERAPAMIL], the RLU in data set [3] was 4.26.

Consider `CC1=C(C(=O)c2ccccc2)C(c2cccc(O)c2)NC(=O)N1` (stereo unspecified), for which the RLU in data set [1] was determined as 0.97.

For the molecule `CC1=C(C(=O)c2ccccc2)C(c2cccc(Oc3ccccc3)c2)NC(=S)N1` (stereo unspecified), the result in data set [2] was Active. For the same molecule, the RLU in data set [1] is 3.68.

On to `CC1=C(C(=O)c2ccccc2)C(c2c[nH]c3ccccc23)NC(=O)N1` (stereo unspecified), for which the outcome in data set [2] was Active. Besides, in data set [1], the RLU is 78.56.

Regarding `CC1=C(C(=O)c2ccccc2)C(/C=C/c2ccccc2)NC(=O)N1` (stereo unspecified), in data set [1], the RLU is listed as 0.99.

In the case of `CC1=C(C(=O)c2ccccc2)C(c2ccccc2O)NC(=S)N1` (stereo unspecified), in data set [1], the RLU was determined as 1.03.

Take `CC1=C(C(=O)c2ccccc2)C(c2ccccc2)NC(=O)N1` (stereo unspecified): the RLU in data set [1] was 1.09.

For the molecule `COc1ccc(OC)c(C2NC(=O)NC(C)=C2C(=O)c2ccccc2)c1` (stereo unspecified), the result in data set [2] was Active. For the same molecule, in data set [1], the RLU is listed as 36.85.

Turning to `CC1=C(C(=O)c2ccccc2)C(c2ccccc2Cl)NC(=S)N1` (stereo unspecified), in data set [1], the RLU is on record as 1.17.

For orientation: IC50 means the concentration that inhibits the measured activity by half. In the case of `CC1=C(C(=O)c2ccccc2)C(c2cccc(Oc3ccccc3)c2)C(C(=O)c2ccccc2)=C(C)N1`, the IC50 in data set [4] is 1120 nM.

As for `COc1cc(C2NC(=O)NC(C)=C2C(=O)c2ccccc2)cc(OC)c1OC` (stereo unspecified), in data set [1], the RLU was 0.96.

`CC1=C(C(=O)c2ccccc2)C(c2ccc(Cl)cc2)NC(=S)N1` (stereo unspecified): in data set [1], the RLU stood at 1.03.

In the case of `CC1=C(C(=O)c2ccccc2)C(c2ccc(C#N)cc2)NC(=O)N1` (stereo unspecified), the RLU in data set [1] is 2.11.

As to `CC1=C(C(=O)c2ccccc2)C(c2c3ccccc3cc3ccccc23)NC(=O)N1` (stereo unspecified), the RLU in data set [1] stood at 4.57.

For `CC1=C(C(=O)c2ccccc2)C(c2cccc(Br)c2)NC(=O)N1` (stereo unspecified), the RLU in data set [1] is recorded as 1.15.

Take `CC1=C(C(=O)c2ccccc2)C(c2cc(Br)c(O)c(Br)c2)NC(=O)N1` (stereo unspecified): the RLU in data set [1] worked out at 0.82.

Turning to `CC1=C(C(=O)c2ccccc2)C(c2cccc(Cl)c2)NC(=O)N1` (stereo unspecified), the RLU in data set [1] is given as 0.89.

Regarding `CC1=C(C(=O)c2ccccc2)C(c2ccc(Cl)cc2)NC(=O)N1` (stereo unspecified), in data set [1], the RLU is on record as 0.96.
